The values that follow come from publication PMC8192908 (Scientific Reports, 2021).

Several values for one entry are separate records, joined by “and”; a condition that tells them apart may be missing. Equal values may be shown once.

As a reminder, the Kd is the concentration at which binding is half-saturated.

The target in one assay is T1, PDE4A (Homo sapiens, UniProt P27815).
T1 construct: Catalytic domain of each protein was cloned between BamHI and XhoI restriction sites in; 6xHis-SUMO (N, cleaved yes); made in house; host or cells: E. coli Rosetta 2 (DE3)
Nature of the assay: ITC binding of PTX to the catalytic domain of PDE4A. The source says:
(§1) Supplementary Materials and Methods
(§2) Cloning, expression and purification of catalytic domains of PDE4A, […]
(§3) The full length human PDE4A (1005 bp), PDE4D (981 bp) and PDE10A (957 bp) cDNAs, cloned in pET28a(+) expression vector, were purchased from Biomatik, Canada.
(§4) Catalytic domain of each protein was cloned between BamHI and XhoI restriction sites in 6x-His-SUMO-tagged bacterial expression vector. The catalytic domain constructs of PDE4A, PDE4D and PDE10A were transformed in E. coli Rosetta 2 (DE3) competent cells for expression. After growing the transformed cells at 37 °C, till the OD 600nm reached 0.5-0.7, the culture containing constructs of PDE4A and PDE4D were induced with 0.1 mM IPTG and the cultures were incubated at 15 °C for 16-18 h, whereas those with PDE10A constructs were induced with 0.5 mM at incubated for 35 -40 h followed by cell harvesting. Harvested cells were suspended in lysis buffer (500 mM NaCl, 50 mM Tris - Cl pH 8.0, 10 mM Imidazole, 3 mM β-mercaptoethanol) and lysed by sonication (Qsonica). The lysates were cleared by centrifugation at 20,000g for 1h and supernatant was passed through Ni-NTA affinity column (His-Trap, GE Healthcare). Eluted proteins were subjected to salt exchange with a buffer containing 100 mM NaCl, 50 mM Tris-Cl pH 8.0, 3 mM β-mercaptoethanol. The collected proteins were further purified using ion - exchange chromatography (Q column, Hi-Trap, GE Healthcare) followed by overnight treatment with ULP1 at 4 °C to cleave 6xHis-SUMO tag. The tag was separated from proteins by a subsequent Ni-NTA purification. The proteins were further purified on size exclusion 16/600 200 pg column (GE Healthcare) pre-equilibrated with a buffer (100 mM […]
NaCl, 50 mM Tris pH 8.0, 5% Glycerol, 3 mM β-mercaptoethanol). After purifying with a gel filtration column, purity was determined on 12% SDS -PAGE and all three proteins […]
concentrated to 20mg/ml, flash cooled with liquid nitrogen and stored at -80°C.
Isothermal titration calorimetry (ITC) binding studies […]
of PDE4A, PDE4D and PDE10A were determined at 25°C, using Affinity ITC (TA instruments). […]

The target of the next assay is T2, PDE10A (Homo sapiens, UniProt Q9Y233).
T2 construct: Catalytic domain of each protein was cloned between BamHI and XhoI restriction sites in; 6xHis-SUMO (N, cleaved yes); made in house; host or cells: E. coli Rosetta 2 (DE3)
Nature of the assay: ITC binding of PTX to the catalytic domain of PDE10A.
Source text: as §1, §2, §3, §4
NaCl, 50 mM Tris pH 8.0, 5% Glycerol, 3 mM β-mercaptoethanol). After purifying with a gel filtration column, purity was determined on 12% SDS -PAGE and all three proteins were more than 95% pure (Supplementary Figure S10). Purified proteins were concentrated to 20mg/ml, flash cooled with liquid nitrogen and stored at -80°C.
Isothermal titration calorimetry (ITC) binding studies
The equilibrium molar dissociation constant (Kd), stoichiometry (N) and […]
of PDE4A, PDE4D and PDE10A were determined at 25°C, using Affinity ITC (TA instruments). Protein and ligand solutions for titration were prepared in the same buffer.
The reference cell was filled with a distilled water and the sample cell was filled with 350 […]
μL of either PDE4A or PDE4D or PDE10A (75-500 µM). […]
sequentially injected in 2 μL per injection (for a total 20 injections), at a regular interval of 120-150s, while stirring at 125 rpm. The ITC generated data were processed using NanoAnalyze software (TA Instruments). The ITC data was deconvoluted with the “independent” curve fitting model using a nonlinear least-squares algorithm. […]

T1 sequence (P27815 357-686 limits assumed): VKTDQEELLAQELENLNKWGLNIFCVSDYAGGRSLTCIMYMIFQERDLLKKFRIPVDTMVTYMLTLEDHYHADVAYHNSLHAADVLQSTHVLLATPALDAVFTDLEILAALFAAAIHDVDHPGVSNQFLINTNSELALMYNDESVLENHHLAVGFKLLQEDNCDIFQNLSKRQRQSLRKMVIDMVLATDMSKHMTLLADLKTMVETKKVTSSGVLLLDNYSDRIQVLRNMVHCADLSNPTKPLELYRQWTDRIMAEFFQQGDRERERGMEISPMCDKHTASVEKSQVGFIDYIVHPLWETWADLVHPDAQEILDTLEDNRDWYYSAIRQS
T2 sequence (Q9Y233 718-1035 limits assumed): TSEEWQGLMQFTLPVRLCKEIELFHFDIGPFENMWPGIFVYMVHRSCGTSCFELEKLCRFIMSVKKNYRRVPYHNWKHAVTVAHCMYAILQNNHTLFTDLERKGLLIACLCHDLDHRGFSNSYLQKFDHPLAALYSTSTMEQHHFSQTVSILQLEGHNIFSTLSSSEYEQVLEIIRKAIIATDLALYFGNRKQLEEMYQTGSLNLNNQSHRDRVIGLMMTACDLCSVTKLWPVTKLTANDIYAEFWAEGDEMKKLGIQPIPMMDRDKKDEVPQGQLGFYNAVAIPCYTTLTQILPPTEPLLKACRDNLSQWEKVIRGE

For the compound `CC(=O)CCCCn1c(=O)c2c(ncn2C)n(C)c1=O` [PTX, pentoxifylline], at PDE4A, the “change in enthalpy (ΔH)” value is ~ -8.3±0.30 kcal/mol, the “change in entropy (ΔS)” value is given as ~ -11.90 cal/mol.K and the “stoichiometry (N)” value is given as ~ 1.08±0.03. Besides, at PDE10A, the “change in enthalpy (ΔH)” value is ~ -8.25±0.04 kcal/mol, the “change in entropy (ΔS)” value is recorded as ~ -7.8 cal/mol.K and the “stoichiometry (N)” value is listed as ~ 1.03±0.04. Moreover, the Kd at PDE10A (25°C, read-out: molar dissociation constant (Kd)) was 44 µM and ~44 µM.
